Active and inactive are the calls of the source. The rule behind the calls is not given here.
How the values were obtained:
[1] = target: T1, Suppressor of tumorigenicity 14 protein (Homo sapiens, UniProt Q9Y5Y6); experiment: (§1) Binding affinity to N-terminal MRGS(His)6GSDDDDK-tagged Matriptase (unknown origin) expressed in Escherichia coli assessed as inhibition constant using Mes-DArg-Pro-Arg-AMC as substrate
T1 sequence (Q9Y5Y6 whole entry): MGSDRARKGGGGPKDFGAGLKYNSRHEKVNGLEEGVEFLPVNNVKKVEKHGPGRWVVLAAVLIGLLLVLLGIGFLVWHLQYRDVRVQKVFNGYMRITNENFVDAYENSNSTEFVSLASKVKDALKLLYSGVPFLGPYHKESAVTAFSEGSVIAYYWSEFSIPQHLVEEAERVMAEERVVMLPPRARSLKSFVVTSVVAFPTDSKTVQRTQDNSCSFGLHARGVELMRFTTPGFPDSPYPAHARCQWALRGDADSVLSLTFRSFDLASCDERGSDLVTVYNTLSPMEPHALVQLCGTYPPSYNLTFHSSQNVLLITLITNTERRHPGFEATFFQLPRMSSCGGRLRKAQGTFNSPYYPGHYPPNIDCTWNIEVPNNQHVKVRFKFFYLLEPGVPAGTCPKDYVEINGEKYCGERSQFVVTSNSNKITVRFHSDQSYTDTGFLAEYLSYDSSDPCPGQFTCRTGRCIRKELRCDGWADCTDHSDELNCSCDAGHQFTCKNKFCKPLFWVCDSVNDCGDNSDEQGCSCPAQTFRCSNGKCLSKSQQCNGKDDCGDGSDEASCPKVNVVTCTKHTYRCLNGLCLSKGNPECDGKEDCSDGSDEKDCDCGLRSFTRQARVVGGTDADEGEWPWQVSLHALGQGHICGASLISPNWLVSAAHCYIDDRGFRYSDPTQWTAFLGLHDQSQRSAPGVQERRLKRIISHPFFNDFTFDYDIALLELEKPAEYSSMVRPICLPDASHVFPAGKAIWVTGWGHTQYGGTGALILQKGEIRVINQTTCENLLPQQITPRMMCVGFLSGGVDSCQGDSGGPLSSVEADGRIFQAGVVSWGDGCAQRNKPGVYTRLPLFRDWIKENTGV

Prothrombin = Prothrombin (Bos taurus, UniProt P00735); experiment: Binding affinity to bovine thrombin assessed as inhibition constant using tosyl-Gly-Pro-Arg-AMC as substrate
Coagulation factor X = Coagulation factor X (Homo sapiens, UniProt P00742); experiment: Binding affinity to FXa (unknown origin) using Mes-DArg-Pro-Arg-AMC as substrate
[2] = as §1, with “Selectivity ratio of Ki for binding affinity to bovine thrombin assessed as inhibition constant using tosyl-Gly-Pro-Arg-AMC as substrate to Ki for binding” for “Binding”; settings: Homo sapiens
Homo sapiens = species on record: Homo sapiens; experiment: Selectivity ratio of Ki for binding affinity to FXa (unknown origin) using Mes-DArg-Pro-Arg-AMC as substrate to Ki for binding affinity to N-terminal MRGS(His)6GSDDDDK-tagged Matriptase (unknown origin ) expressed in Escherichia coli assessed as inhibition constant using Mes-DArg-Pro-Arg-AMC as substrate
MDCK-II = experiment: Cytotoxicity against MDCK-II cells assessed as reduction in cell viability at 50 uM measured for 24 hrs by Celltiter-glo luminescent assay; type: toxicity, cell-based, Canis lupus familiaris; settings: dog
Influenza A virus [3] = experiment: Antiviral activity against Influenza A virus H9N2 infected in MDCK-II cells assessed as inhibition of viral replication measured after 24 hrs by immunostaining based assay; type: functional, organism-based; settings: DDE = dose-dependent effect
Influenza A virus [4] = experiment: Antiviral activity against Influenza A virus H9N2 infected in MDCK-II cells assessed as reduction in comet-shaped foci at 50 uM measured after 24 hrs by immunostaining based assay; type: functional, organism-based
Influenza A virus [5] = experiment: Antiviral activity against Influenza A virus H9N2 infected in MDCK-II cells assessed as reduction in comet-shaped foci at 20 uM measured after 24 hrs by immunostaining based assay; type: functional, organism-based
Influenza A virus [6] = experiment: Antiviral activity against Influenza A virus H9N2 infected in MDCK-II cells assessed as reduction in viral titer in supernatants at 5 to 50 uM measured after 24 hrs by plaque assay; type: functional, organism-based; settings: dose 5-50 µM
Influenza A virus [7] = experiment: Antiviral activity against Influenza A virus H9N2 infected in MDCK-II cells assessed as inhibition of viral replication at 5 uM measured after 24 hrs by immunostaining based assay; type: functional, organism-based
[8] = Binding affinity to bovine trypsin assessed as inhibition constant […]; parameters: species or system Bos taurus

Sequence of Coagulation factor X (P00742 41-179 limits assumed): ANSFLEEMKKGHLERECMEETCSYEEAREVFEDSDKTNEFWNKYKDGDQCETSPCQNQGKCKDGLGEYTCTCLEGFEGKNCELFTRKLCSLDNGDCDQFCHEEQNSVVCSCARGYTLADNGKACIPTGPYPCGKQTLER
Sequence of Coagulation factor X (P00742 235-488 limits assumed): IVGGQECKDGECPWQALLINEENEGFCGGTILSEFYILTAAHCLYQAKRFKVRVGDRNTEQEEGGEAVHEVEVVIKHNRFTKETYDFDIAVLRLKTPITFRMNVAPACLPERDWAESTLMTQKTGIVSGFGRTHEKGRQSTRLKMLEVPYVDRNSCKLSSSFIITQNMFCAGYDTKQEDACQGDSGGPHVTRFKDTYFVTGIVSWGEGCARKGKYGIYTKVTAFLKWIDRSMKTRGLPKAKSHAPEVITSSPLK

`CC(C)(C)NC(=O)NC1CCN(C(=O)[C@H](Cc2cccc(C(=N)N)c2)NS(=O)(=O)c2cccc(-c3cc(F)c(CO)c(F)c3)c2)CC1` showed a Ki [1] of 24 nM, a Ki (Prothrombin) of 11800 nM and a Ki (Coagulation factor X) of 504 nM. It also gave a Ratio Ki [2] of 492 and a Ratio Ki (Homo sapiens) of 21.
Work on `CC(C)(C)NC(=O)NC1CCN(C(=O)[C@H](Cc2cccc(C(=N)N)c2)NS(=O)(=O)c2cccc(-c3ccc(CN)cc3)c2)CC1` yielded a Ki [1] of 4 nM, a Ki (Prothrombin) of 553 nM and a Ki (Coagulation factor X) of 10 nM. The Ratio Ki [2] was 138 and the Ratio Ki (Homo sapiens) was 2.5.
With `CC(C)(C)NC(=O)NC1CCN(C(=O)[C@H](Cc2cccc(C(=N)N)c2)NS(=O)(=O)c2cccc(-c3ccc(N)nc3)c2)CC1` the Ki [1] was 3 nM, the Ki (Prothrombin) was 4260 nM and the Ki (Coagulation factor X) was 4 nM. For the same molecule, the Ratio Ki [2] was 1420.
`CC(C)(C)NC(=O)NC1CCN(C(=O)[C@H](Cc2cccc(C(=N)N)c2)NS(=O)(=O)c2cccc(-c3cccc(CN)c3)c2)CC1` showed a Ki [1] of 1 nM, a Ki (Prothrombin) of 1320 nM and a Ki (Coagulation factor X) of 0.1 nM. For the same molecule, the Ratio Ki [2] was 1320 and the Ratio Ki (Homo sapiens) was 0.1.
In the case of `COc1ccc(-c2cccc(S(=O)(=O)N[C@@H](Cc3cccc(C(=N)N)c3)C(=O)N3CCC(NC(=O)NC(C)(C)C)CC3)c2)c(OC)c1`, the Ki [1] is reported as 3 nM, the Ki (Prothrombin) is reported as 1800 nM and the Ki (Coagulation factor X) is reported as 2 nM. For the same molecule, the Ratio Ki [2] was 600, the Ratio Ki (Homo sapiens) was 0.7 and the Activity (MDCK-II) was “Toxic”. The Activity (Influenza A virus [3]) was “Dde”, the Activity (Influenza A virus [4]) was “Active” and the Activity (Influenza A virus [5]) was “Active”. For the same molecule, the Activity (Influenza A virus [6]) was “Active”.
For `CC(C)(C)NC(=O)NC1CCN(C(=O)[C@H](Cc2cccc(C(=N)N)c2)NS(=O)(=O)c2cccc(-c3ccc(F)c(CO)c3)c2)CC1`, the Ki [1] was 50 nM, the Ki (Prothrombin) was 1070 nM and the Ki (Coagulation factor X) was 51 nM. For the same molecule, the Ratio Ki [2] was 21 and the Ratio Ki (Homo sapiens) was 1.
`CC(C)(C)NC(=O)NC1CCN(C(=O)[C@H](Cc2cccc(C(=N)N)c2)NS(=O)(=O)c2cccc(-c3ccc(CO)cc3)c2)CC1` gave a Ki [1] of 11 nM, a Ki (Prothrombin) of 12000 nM and a Ki (Coagulation factor X) of 60 nM. For the same molecule, the Ratio Ki [2] was 1090 and the Ratio Ki (Homo sapiens) was 5.5.
Molecule `CC(C)(C)NC(=O)NC1CCN(C(=O)[C@H](Cc2cccc(C(=N)N)c2)NS(=O)(=O)c2cccc(-c3ccc(COC(C)(C)C)cc3)c2)CC1` has a Ki [1] of 171 nM, a Ki (Prothrombin) of 2520 nM and a Ki (Coagulation factor X) of 529 nM. It also gave a Ratio Ki [2] of 15 and a Ratio Ki (Homo sapiens) of 3.1.
With `CC(C)(C)NC(=O)NC1CCN(C(=O)[C@H](Cc2cccc(C(=N)N)c2)NS(=O)(=O)c2cccc(-c3cccc(C(=N)N)c3)c2)CC1` the Activity (Influenza A virus [7]) was “Active”, the Ki [1] was 0.7 nM and the Ki (Prothrombin) was 2550 nM. For the same molecule, the Ki (Coagulation factor X) was 9 nM, the Ratio Ki [2] was 3640 and the Ratio Ki (Homo sapiens) was 13. For the same molecule, the Ki [8] was 5 nM, the Activity (MDCK-II) was “Toxic” and the Activity (Influenza A virus [3]) was “Dde”. For the same molecule, the Activity (Influenza A virus [4]) was “Active”, the Activity (Influenza A virus [5]) was “Active” and the Activity (Influenza A virus [6]) was “Active”.
With `CNC(=O)NC1CCN(C(=O)[C@H](Cc2cccc(C(=N)N)c2)NS(=O)(=O)c2cccc(-c3ccc(OC)cc3OC)c2)CC1` the Ki [1] was 26 nM, the Ki (Prothrombin) was 89 nM and the Ki (Coagulation factor X) was 23 nM. For the same molecule, the Ratio Ki [2] was 3.4 and the Ratio Ki (Homo sapiens) was 0.9.
`CC(C)Oc1ccc(-c2cccc(S(=O)(=O)N[C@@H](Cc3cccc(C(=N)N)c3)C(=O)N3CCC(NC(=O)NC(C)(C)C)CC3)c2)cc1` gave a Ki [1] of 58 nM, a Ki (Prothrombin) of 5140 nM and a Ki (Coagulation factor X) of 439 nM. It also gave a Ratio Ki [2] of 89 and a Ratio Ki (Homo sapiens) of 9.3.

— ChEMBL document CHEMBL5113419
